# According to US20030139349A1, “Benzophenone alpha-d-glycopyranosides, preparation and therapeutic use” (priority 2002, published 2003):
# System: female mice of the C57BL/6J strain
# Assay: Lowering of serum cholesterol level in mice subjected to a fatty diet (single dose)
# Format: in vivo
# Conditions: total serum cholesterol; female C57BL/6J mice on fatty diet (1.25% cholesterol, 0.5% cholic acid); single dose 100 mg/kg by tubage, suspension in 3% aqueous gum
# Experimental: The antiatheromatous activity of the compounds according to the invention was evaluated as a function of their ability to lower the serum cholesterol level in mice subjected to a fatty diet. […] This correlation affords a test which is more rapid than direct experiments on the atheromatous plaque, which require a lengthy treatment of the animals and an expensive histological study of the walls of the aortic arch.
# The test used consists in administering a single dose of the compound to female mice of the C57BL/6J strain. The protocol is as follows: On the first day (D0), the mice are fasted from 9 am to 5 pm, a blood sample being taken at 2 pm. At 5 pm, a given amount of food (a fatty diet comprising 1.25% of cholesterol and 0.5% of cholic acid) is distributed. On the second day (D1), the food leftovers are weighed at 9 am and the mice are fasted from 9 am to 2 pm. A blood sample is taken at 2 pm. For the treated groups of mice, the compound is administered at 9 am on the second day (D1) by tubage in the form of a suspension in a 3% aqueous solution of gum. The control groups receive only the aqueous gum.
# The compounds were tested at a dose of 100 mg/kg. The total serum cholesterol is assayed and the results are expressed as the percentage inhibition of the increase in cholesterolemia compared with the control group.
row,Structure (SMILES),Activity (%): percentage inhibition of the increase in cholesterolemia compared with the control group
1,"CC(=O)OC[C@H]1O[C@H](Oc2ccc(C(=O)c3ccc(C#N)cc3)cc2)[C@H](OC(C)=O)[C@@H](OC(C)=O)[C@@H]1OC(C)=O [Example 1, [4-(4-Cyanobenzoyl)phenyl]2,3,4,6-tetra-O-acetyl-α-D-glucopyranoside]",−27%
2,"N#Cc1ccc(C(=O)c2ccc(O[C@H]3O[C@H](CO)[C@@H](O)[C@H](O)[C@H]3O)cc2)cc1 [Example 2, [4-(4-Cyanobenzoyl)phenyl]α-D-glucopyranoside]",−23%
3,"CC(=O)OC[C@H]1O[C@H](Oc2ccc(C(=O)c3ccc(C#N)cc3)cc2)[C@@H](OC(C)=O)[C@@H](OC(C)=O)[C@@H]1OC(C)=O [Example 3, [4-(4-Cyanobenzoyl)phenyl]2,3,4,6-tetra-O-acetyl-α-D-mannopyranoside]",−10%
4,"N#Cc1ccc(C(=O)c2ccc(O[C@H]3O[C@H](CO)[C@@H](O)[C@H](O)[C@@H]3O)cc2)cc1 [Example 4, [4-(4-Cyanobenzoyl)phenyl]α-D-mannopyranoside]",−38%
5,"CC(=O)OC[C@H]1O[C@H](Oc2ccc(C(=O)c3ccc(C#N)cc3)cc2)[C@H](OC(C)=O)[C@@H](OC(C)=O)[C@H]1OC(C)=O [Example 5, [4-(4-Cyanobenzoyl)phenyl]2,3,4,6-tetra-O-acetyl-α-D-galactopyranoside]",−32%
6,"N#Cc1ccc(C(=O)c2ccc(O[C@H]3O[C@H](CO)[C@H](O)[C@H](O)[C@H]3O)cc2)cc1 [Example 6, [4-(4-Cyanobenzoyl)phenyl]α-D-galactopyranoside]",−35%
7,"CC(=O)O[C@@H]1[C@@H](Oc2ccc(C(=O)c3ccc(C#N)cc3)cc2)OC[C@@H](OC(C)=O)[C@H]1OC(C)=O [Example 7, [4-(4-Cyanobenzoyl)phenyl]2,3,4-tri-O-acetyl-α-D-arabinopyranoside]",−25%
8,"N#Cc1ccc(C(=O)c2ccc(O[C@H]3OC[C@@H](O)[C@@H](O)[C@@H]3O)cc2)cc1 [Example 8, [4-(4-Cyanobenzoyl)phenyl]α-D-arabinopyranoside]",−29%
9,"N#Cc1ccc(C(=O)c2ccc(O[C@H]3OC[C@@H](O)[C@H](O)[C@@H]3O)cc2)cc1 [Example 10, [4-(4-Cyanobenzoyl)phenyl]α-D-lyxopyranoside]",−48%
10,"N#Cc1ccc(C(=O)c2ccc(O[C@H]3OC[C@@H](O)[C@@H](O)[C@H]3O)cc2)cc1 [Example 11, [4-(4-Cyanobenzoyl)phenyl]α-D-ribopyranoside]",−26%
